# Measurements as given in ChEMBL document CHEMBL1131896, “Probing the radical mechanism of galactose oxidase using an ultrafast radical probe” (Bioorg Med Chem Lett, 1999).
# Legend:
# [1] = molecular target: Galactose oxidase (Fusarium austroamericanum); experiment: Binding constant against Galactose oxidase (GOase)
# [2] = system: Galactose oxidase (Fusarium austroamericanum); experiment: Inactivation rate constant against Galactose oxidase (GOase)
Ki [1] [mM],SMILES,also measured
5.6,OC[C@H]1C[C@@H]1c1ccccc1 [listing 1 of 2 here],–
–,OC[C@H]1C[C@@H]1c1ccccc1 [listing 2 of 2 here],K inact [2]: 0.0026 s⁻¹
5.1,[2H]C([2H])(O)[C@H]1C[C@@H]1c1ccccc1 (relative stereo),–
–,OC[C@H]1C[C@@H]1c1ccccc1 (relative stereo),K inact ([2]; tested as the 2H-labelled form): 0.00082 s⁻¹
